Measured values taken from patent US20250368652A1, “MICROBIOCIDAL BICYCLIC HETEROCYCLIC CARBOXAMIDE DERIVATIVES” (SYNGENTA CROP PROTECTION AG, priority 2022, published 2025).

Tests used:
[1] = test system: Botryotinia fuckeliana (Botrytis cinerea); experiment: Botryotinia fuckeliana (Botrytis cinerea) / liquid culture (gray mould); assay type: cell-based; details: liquid culture (Vogels broth), growth inhibition photometrically 3-4 days after application, compared to untreated control
Description: (§1) Mycelia fragments or conidia suspensions of a fungus prepared either freshly from liquid cultures of the fungus or from cryogenic storage, are directly mixed into nutrient broth. DMSO solutions of the test compound (max. 10 mg/mL) are diluted with 0.025% Tween20 by a factor of 50 and 10 μL of this solution is pipetted into a microtiter plate (96-well format). The nutrient broth containing the fungal spores/mycelia fragments is then added to give an end concentration of the tested compound. The test plates are incubated in the dark at 24° C. and 96% relative humidity. The inhibition of fungal growth is determined photometrically after 2 to 7 days, depending on the pathosystem, and percent antifungal activity relative to the untreated check is calculated. Conidia of the fungus from cryogenic storage are directly mixed into nutrient broth (Vogels broth). After placing a (DMSO) solution of test compound into a microtiter plate (96-well format), the nutrient broth containing the fungal spores is added. The test plates are incubated at 24° C. and the inhibition of growth is determined photometrically 3-4 days after application.

[2] = test system: Glomerella lagenarium (Colletotrichum lagenarium); experiment: Glomerella lagenarium (Colletotrichum lagenarium) / liquid culture (anthracnose); assay type: cell-based; details: Colletotrichum orbiculare, liquid culture (PDB), growth inhibition photometrically 3-4 days after application, compared to untreated control
Description: as §1, with “nutrient broth (PDB potato dextrose broth). After” for “nutrient broth (Vogels broth). After”, “growth is measured photometrically 3-4” for “growth is determined photometrically 3-4”

Phytophthora infestans = assay type: in vivo; details: 200 ppm; tomato leaf disks, preventative, inoculated 1 day after application; compared to untreated control
[3] = test system: Magnaporthe grisea (Pyricularia oryzae); assay type: in vivo; details: 200 ppm; rice leaf segments cv. Ballila, preventative, inoculated 2 days after application; compared to untreated control
[4] = test system: Blumeria graminis f. sp. tritici (Erysiphe graminis f. sp. tritici); experiment: Blumeria graminis f. sp. tritici / wheat / leaf disc preventative (powdery mildew on wheat); assay type: in vivo; details: 200 ppm, wheat leaf segments cv. Kanzler, inoculated 1 day after application, compared to untreated control
Description: Leaf disks or leaf segments of various plant species are cut from plants grown in a greenhouse. The cut leaf disks or segments are placed in multiwell plates (24-well format) onto water agar. The leaf disks are sprayed with a test solution before (preventative) or after (curative) inoculation. Compounds to be tested are prepared as DMSO solutions (max. 10 mg/mL) which are diluted to the appropriate concentration with 0.025% Tween20 just before spraying. The inoculated leaf disks or segments are incubated under defined conditions (temperature, relative humidity, light, etc.) according to the respective test system. A single evaluation of disease level is carried out 3 to 14 days after inoculation, depending on the pathosystem. Percent disease control relative to the untreated check leaf disks or segments is then calculated. Wheat leaf segments cv. Kanzler are placed on agar in a multiwell plate (24-well format) and sprayed with the formulated test compound diluted in water. […] The inoculated leaf disks are incubated at 20° C. and 60% rh under a light regime of 24 h darkness followed by 12 h light/12 h darkness in a climate chamber and the activity of a compound is assessed as percent disease control compared to untreated when an appropriate level of disease damage appears on untreated check leaf segments (6-8 days after application).

[5] = test system: Phaeosphaeria nodorum (Septoria nodorum); experiment: Phaeosphaeria nodorum (Septoria nodorum) / wheat / leaf disc preventative (glume blotch); assay type: in vivo; details: 200 ppm, wheat leaf segments cv. Kanzler, inoculated 2 days after application, compared to untreated control
Description: Leaf disks or leaf segments of various plant species are cut from plants grown in a greenhouse. The cut leaf disks or segments are placed in multiwell plates (24-well format) onto water agar. The leaf disks are sprayed with a test solution before (preventative) or after (curative) inoculation. Compounds to be tested are prepared as DMSO solutions (max. 10 mg/mL) which are diluted to the appropriate concentration with 0.025% Tween20 just before spraying. The inoculated leaf disks or segments are incubated under defined conditions (temperature, relative humidity, light, etc.) according to the respective test system. A single evaluation of disease level is carried out 3 to 14 days after inoculation, depending on the pathosystem. Percent disease control relative to the untreated check leaf disks or segments is then calculated. Wheat leaf segments cv. Kanzler are placed on agar in a multiwell plate (24-well format) and sprayed with the formulated test compound diluted in water. […] The inoculated test leaf disks are incubated at 20° C. and 75% rh under a light regime of 12 h light/12 h darkness in a climate cabinet and the activity of a compound is assessed as percent disease control compared to untreated when an appropriate level of disease damage appears in untreated check leaf disks (5-7 days after application).

[6] = test system: Puccinia recondita f. sp. tritici; experiment: Puccinia recondita f. sp. tritici / wheat / leaf disc curative (brown rust); assay type: in vivo; details: 200 ppm, wheat leaf segments cv. Kanzler, applied 1 day after inoculation, compared to untreated control

Structure (SMILES)	inhibition of growth at 20 ppm [1]	inhibition of growth at 20 ppm [2]	further results
Cc1cnn2c(C(=O)NCC(F)c3ccc(Cl)cc3Cl)c(Oc3cccc(C4CC4)c3)cnc12 (stereo not shown) [Compound P-1.11, 6-(3-cyclopropylphenoxy)-N-[2-(2,4-dichlorophenyl)-2-fluoro-ethyl]-3-methyl-pyrazolo[1,5-a]pyrimidine-7-carboxamide]	≥ 80%	≥ 80%	–
O=C(NCC(F)c1ccc(Cl)cc1Cl)c1c(Oc2cccc(C3CC3)c2)cnc2ncnn12 (stereo not shown) [Compound P-1.2, 6-(3-cyclopropylphenoxy)-N-[2-(2,4-dichlorophenyl)-2-fluoro-ethyl]-[1,2,4]triazolo[1,5-a]pyrimidine-7-carboxamide]	≥ 80%	≥ 80%	–
Cc1nn2c(C(=O)NCC(F)c3ccc(Cl)cc3Cl)c(Oc3cccc(C4CC4)c3)cnc2c1C#N (stereo not shown) [Compound P-1.20, 3-cyano-6-(3-cyclopropylphenoxy)-N-[2-(2,4-dichlorophenyl)-2-fluoro-ethyl]-2-methyl-pyrazolo[1,5-a]pyrimidine-7-carboxamide]	≥ 80%	≥ 80%	–
O=C(NCC(F)c1ccc(Cl)cc1Cl)c1c(Oc2cccc(C3CC3)c2)cnc2cc(Cl)nn12 (stereo not shown) [Compound P-1.12, 2-chloro-6-(3-cyclopropylphenoxy)-N-[2-(2,4-dichlorophenyl)-2-fluoro-ethyl]pyrazolo[1,5-a]pyrimidine-7-carboxamide]	≥ 80%	≥ 80%	–
O=C(NCC(F)c1ccc(Cl)cc1Cl)c1c(Oc2cccc(C3CC3)c2)cnc2cc(F)nn12 (stereo not shown) [Compound P-1.10, 6-(3-cyclopropylphenoxy)-N-[2-(2,4-dichlorophenyl)-2-fluoro-ethyl]-2-fluoro-pyrazolo[1,5-a]pyrimidine-7-carboxamide]	≥ 80%	≥ 80%	–
O=C(NCC(F)c1ccc(Cl)cc1Cl)c1c(Oc2cccc(C3CC3)c2)cnc2nccn12 (stereo not shown) [Compound P-1.1, 6-(3-cyclopropylphenoxy)-N-[2-(2,4-dichlorophenyl)-2-fluoro-ethyl]imidazo[1,2-a]pyrimidine-5-carboxamide]	≥ 80%	≥ 80%	–
O=C(NCCc1ccc(Cl)cc1Cl)c1c(Oc2cccc(C3CC3)c2)cnc2nccn12 [Compound P-1.6, 6-(3-cyclopropylphenoxy)-N-[2-(2,4-dichlorophenyl)ethyl]imidazo[1,2-a]pyrimidine-5-carboxamide]	–	≥ 80%	–
Cc1nc2ncc(Oc3cccc(C4CC4)c3)c(C(=O)NCC(F)c3ccc(Cl)cc3Cl)n2n1 (stereo not shown) [Compound P-1.14, 6-(3-cyclopropylphenoxy)-N-[2-(2,4-dichlorophenyl)-2-fluoro-ethyl]-2-methyl-[1,2,4]triazolo[1,5-a]pyrimidine-7-carboxamide]	≥ 80%	≥ 80%	–
O=C(NCC(F)c1ccc(Cl)cc1Cl)c1c(Oc2cccc(C3CC3)c2)cnc2c(Cl)cnn12 (racemic) [Compound P-1.9, 3-chloro-6-(3-cyclopropylphenoxy)-N-[2-(2,4-dichlorophenyl)-2-fluoro-ethyl]pyrazolo[1,5-a]pyrimidine-7-carboxamide]	≥ 80%	–	control of Phytophthora infestans (Phytophthora infestans): at least 80%; control of Magnaporthe grisea [3]: at least 80%
O=C(NCC(F)c1ccc(Cl)cc1Cl)c1c(Oc2cccc(C3CC3)c2)cnn2nccc12 (stereo not shown) [Compound P-1.15, 5-(3-cyclopropylphenoxy)-N-[2-(2,4-dichlorophenyl)-2-fluoro-ethyl]pyrazolo[1,5-b]pyridazine-4-carboxamide]	≥ 80%	≥ 80%	–
O=C(NC[C@H](F)c1ccc(Cl)cc1Cl)c1c(Oc2cccc(C3CC3)c2)cnc2c(Cl)cnn12 (single isomer, unassigned) [Compound P-1.16]	≥ 80%	≥ 80%	control of Blumeria graminis f. sp. tritici [4]: at least 80%; control of Phaeosphaeria nodorum [5]: at least 80%
N#Cc1cc2ncc(Oc3cccc(C4CC4)c3)c(C(=O)NCC(F)c3ccc(Cl)cc3Cl)n2n1 (stereo not shown) [Compound P-1.8, 2-cyano-6-(3-cyclopropylphenoxy)-N-[2-(2,4-dichlorophenyl)-2-fluoro-ethyl]pyrazolo[1,5-a]pyrimidine-7-carboxamide]	≥ 80%	≥ 80%	control of Puccinia recondita f. sp. tritici [6]: at least 80%
O=C(NCC(F)c1ccc(Cl)cc1Cl)c1c(Oc2cccc(C3CC3)c2)cnc2ccnn12 (stereo not shown) [Compound P-1.3, 6-(3-cyclopropylphenoxy)-N-[2-(2,4-dichlorophenyl)-2-fluoro-ethyl]pyrazolo[1,5-a]pyrimidine-7-carboxamide]	≥ 80%	≥ 80%	–
Cc1cn2c(C(=O)NCC(F)c3ccc(Cl)cc3Cl)c(Oc3cccc(C4CC4)c3)cnc2n1 (stereo not shown) [Compound P-1.7, 6-(3-cyclopropylphenoxy)-N-[2-(2,4-dichlorophenyl)-2-fluoro-ethyl]-2-methyl-imidazo[1,2-a]pyrimidine-5-carboxamide]	≥ 80%	≥ 80%	–
COc1nn2c(C(=O)NCC(F)c3ccc(Cl)cc3Cl)c(Oc3cccc(C4CC4)c3)cnc2c1C#N (stereo not shown) [Compound P-1.18, 3-cyano-6-(3-cyclopropylphenoxy)-N-[2-(2,4-dichlorophenyl)-2-fluoro-ethyl]-2-methoxy-pyrazolo[1,5-a]pyrimidine-7-carboxamide]	≥ 80%	–	–
O=C(NCCc1ccc(Cl)cc1Cl)c1c(Oc2cccc(C3CC3)c2)cnc2ncnn12 [Compound P-1.5, 6-(3-cyclopropylphenoxy)-N-[2-(2,4-dichlorophenyl)ethyl]-[1,2,4]triazolo[1,5-a]pyrimidine-7-carboxamide]	≥ 80%	–	–
Cc1nn2c(C(=O)NCC(F)c3ccc(Cl)cc3Cl)c(Oc3cccc(C4CC4)c3)cnc2c1Cl (stereo not shown) [Compound P-1.19, 3-chloro-6-(3-cyclopropylphenoxy)-N-[2-(2,4-dichlorophenyl)-2-fluoro-ethyl]-2-methyl-pyrazolo[1,5-a]pyrimidine-7-carboxamide]	≥ 80%	–	–
